Reference: ChEMBL document CHEMBL2016464, “Identification of Inhibitors of NOD1-Induced Nuclear Factor-κB Activation” (ACS Med Chem Lett, 2011)

Legend:
HEK-293T = assay: Cytotoxicity against HEK293T cells at 20 uM by alamar blue assay; format: cell-based; conditions: human
cells = conditions: Homo sapiens, HEK-293T, 14 h
Description: Inhibition of TNFalpha-induced NFkappaB activation in HEK293T cells after 14 hrs by luciferase reporter gene assay

[1] = biological target: Nucleotide-binding oligomerization domain-containing protein 2 (Homo sapiens, UniProt Q9HC29)
Chain of Nucleotide-binding oligomerization domain-containing protein 2 (Q9HC29 whole entry, the tested form may be a part): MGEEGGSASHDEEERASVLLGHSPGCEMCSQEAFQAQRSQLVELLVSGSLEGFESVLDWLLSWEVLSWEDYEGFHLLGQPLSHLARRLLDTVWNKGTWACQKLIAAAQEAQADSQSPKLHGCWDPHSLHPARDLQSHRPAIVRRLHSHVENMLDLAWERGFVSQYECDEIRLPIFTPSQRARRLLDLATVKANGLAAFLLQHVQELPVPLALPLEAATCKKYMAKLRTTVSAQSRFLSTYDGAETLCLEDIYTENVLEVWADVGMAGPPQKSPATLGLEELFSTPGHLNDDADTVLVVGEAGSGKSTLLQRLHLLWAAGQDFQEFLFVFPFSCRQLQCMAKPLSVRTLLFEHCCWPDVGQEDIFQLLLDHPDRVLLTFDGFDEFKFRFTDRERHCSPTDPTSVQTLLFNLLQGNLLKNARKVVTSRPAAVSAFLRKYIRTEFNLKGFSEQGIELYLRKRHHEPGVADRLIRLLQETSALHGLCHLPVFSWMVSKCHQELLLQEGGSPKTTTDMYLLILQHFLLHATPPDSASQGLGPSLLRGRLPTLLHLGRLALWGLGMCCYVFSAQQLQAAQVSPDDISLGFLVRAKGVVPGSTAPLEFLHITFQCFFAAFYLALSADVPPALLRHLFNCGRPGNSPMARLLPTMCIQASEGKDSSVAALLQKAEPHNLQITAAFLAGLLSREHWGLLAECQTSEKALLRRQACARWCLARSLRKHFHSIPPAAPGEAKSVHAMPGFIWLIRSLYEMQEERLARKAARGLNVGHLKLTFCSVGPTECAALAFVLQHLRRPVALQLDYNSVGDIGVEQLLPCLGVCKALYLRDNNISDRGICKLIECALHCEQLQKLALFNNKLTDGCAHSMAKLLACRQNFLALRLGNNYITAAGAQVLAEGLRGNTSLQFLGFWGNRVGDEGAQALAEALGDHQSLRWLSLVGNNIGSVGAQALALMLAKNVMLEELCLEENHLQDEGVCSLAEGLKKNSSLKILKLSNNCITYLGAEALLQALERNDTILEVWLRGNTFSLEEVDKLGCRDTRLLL

SMILES	Activity (HEK-293T)	IC50 (cells)	IC50 [1]
O=C(Nc1ccc(Br)cc1)c1ccc(CN2CCc3ccccc3C2)cc1	0%	1.5 µM	–
O=C(Nc1ccc(Cl)cc1)c1ccc(CN2CCc3ccccc3C2)cc1	0%	0.49 µM	3.54 µM
Nc1nc2ccccc2n1S(=O)(=O)c1ccccc1	0%	> 20 µM	–
Cc1ccc(NC(=O)c2ccc(CN3CCc4ccccc4C3)cc2)cc1	0%	> 20 µM	> 20 µM
Nc1nc2ccccc2n1S(=O)(=O)c1ccc([N+](=O)[O-])cc1	0%	–	–
CC(=O)N1c2ccc(S(=O)(=O)N3CCN(c4ccc([N+](=O)[O-])cc4)CC3)cc2CC1C (racemic)	0%	3.27 µM	–
CSc1ccc(NC(=O)c2ccc(CN3CCCCC3)cc2)cc1	0%	> 20 µM	–
CN(C)c1ccc(NC(=O)c2ccc(CN3CCc4ccccc4C3)cc2)cc1	0%	1.83 µM	3.58 µM
CCOc1ccc(NC(=O)c2ccc(CN3CCc4ccccc4C3)cc2)cc1	0%	2.05 µM	0.57 µM
COc1ccc(NC(=O)c2ccc(CN3CCc4ccccc4C3)cc2)cc1	0%	0.65 µM	0.78 µM
O=C(Nc1ccc(F)cc1)c1ccc(CN2CCCCC2)cc1	0%	> 20 µM	–
Nc1nc2ccccc2n1C(=O)c1ccc(F)cc1	0%	–	–
Nc1nc2ccccc2n1C(=O)c1ccc(Cl)cc1Cl	0%	–	–
N#Cc1ccc(N2CCN(S(=O)(=O)c3ccc4c(c3)CCN4C(=O)C3CC3)CC2)cc1	0%	> 20 µM	–
COc1ccc(S(=O)(=O)n2c(N)nc3ccccc32)cc1	0%	–	–
Cc1ccc(S(=O)(=O)n2cnc3ccccc32)cc1	0%	> 20 µM	> 20 µM
CN(C)c1ccc(NC(=O)c2ccc(CN3CCCCC3)cc2)cc1	0%	> 20 µM	–

SMILES	Activity (HEK-293T)	IC50 (cells)	IC50 [1]
CCOc1ccc(NC(=O)c2ccc(CN3CCCCC3)cc2)cc1	0%	> 20 µM	–
CCOC(=O)c1ccc(NC(=O)c2ccc(CN3CCc4ccccc4C3)cc2)cc1	0%	0.14 µM	0.4 µM
O=C(Nc1ccc(F)cc1)c1ccc(CN2CCc3ccccc3C2)cc1	0%	2.88 µM	1.85 µM
CC(=O)c1ccc(N2CCN(S(=O)(=O)c3ccc4c(c3)CCN4C(=O)C3CC3)CC2)cc1	0%	> 20 µM	–
CC(=O)c1ccc(N2CCN(S(=O)(=O)c3ccc4c(c3)CCN4C(C)=O)CC2)cc1	0%	> 20 µM	–
O=C(Nc1ccc(F)cc1)c1ccc(CN2CCc3ccccc32)cc1	0%	> 20 µM	–
CCC(=O)N1CCc2cc(S(=O)(=O)N3CCN(c4ccc(C#N)cc4)CC3)ccc21	0%	> 20 µM	–
CN(C)c1ccc(NC(=O)c2ccc(CN3CCc4ccccc43)cc2)cc1	0%	> 20 µM	–
Nc1nc2ccccc2n1Cc1ccc(Cl)cc1	0%	> 20 µM	–
Cc1ccc(S(=O)(=O)n2c(C)nc3ccccc32)cc1	0%	–	–
Nc1nc2ccccc2n1CCC(=O)c1ccc(Cl)cc1	0%	> 20 µM	–
CC(=O)N1CCc2cc(S(=O)(=O)N3CCN(c4ccc([N+](=O)[O-])cc4)CC3)ccc21	0%	> 20 µM	–
Cc1ccc(S(=O)(=O)n2c(S)nc3ccc(C)cc32)cc1	0%	> 20 µM	–
Nc1nc2ccccc2n1S(=O)(=O)c1ccc(Cl)cc1	0%	–	–
CC(=O)N1CCc2cc(S(=O)(=O)N3CCN(c4ccc(Cl)cc4)CC3)ccc21	0%	> 20 µM	–
CCC(=O)N1CCc2cc(S(=O)(=O)N3CCN(c4ccc([N+](=O)[O-])cc4)CC3)ccc21	0%	> 20 µM	–
Cc1ccc(S(=O)(=O)n2c(N)nc3cc(C)c(C)cc32)cc1	0%	> 20 µM	–
